Measurements: patent US5034212A, “Method of imaging using a radioactive glucosamine derivative” (Nihon Medi-Physics Co., Ltd., priority 1989, dated 1991)

Key:
hexokinase = test: Phosphorylation with hexokinase / inhibition of glucose phosphorylation; format: biochemical
[1] = Body distribution of BGA in mouse; format: in vivo
[2] = Body distribution of ^125 I-ABGA in mouse; format: in vivo, ddY strain male mice; conditions: i.v.
brain = test: Behavior in mouse: TLC of brain and blood homogenates after tail vein injection; format: in vivo, ddY strain male mice
Experimental: ^125 I-ABGA was injected into ddY strain male mice at the tail vein, and after a certain period of time, the mice were sacrificed. The blood was collected from the heart, and the brain was taken out. The blood and the brain were respectively admixed with 5% trichloroacetic acid (1 ml), homogenized and centrifuged at 3,000 rpm and at 0° C. for 10 minutes. The supernatant was analyzed by thin layer chromatography using a mixture of chloroform and methanol (7:3 by volume) as a developing solvent. The results are shown in FIGS. 1A and 1B of the accompanying drawings. In FIGS. 1A and 1B showing respectively the analytical results on the brain homogenate and the blood homogenate, the solid line, the dotted line and the solid-dot mixed line represent respectively the ones of 5 minutes, 60 minutes and 180 minutes after the administration.

Swine liver esterase = test: Enzymatic deesterification with swine liver esterase, TLC analysis; format: in vitro ADME; conditions: pH 7.4, 37° C.; for Proportion of peak component ABGA / Proportion of peak component BGA / Proportion of peak component I^- / Proportion of peak component Others: esterase 100 U
Experimental: Swine liver esterase (100 U) was added to phosphate buffer (pH 7.4), and ^125 I-ABGA (50 kBq) was added thereto, followed by incubation at 37° C. for a certain period of time. The reaction mixture was sampled, and ethanol was added thereto, followed by centrifugation.

[3] = Stability in buffer of pH 5, 7 or 9 at 37° C., TLC analysis; format: physicochemical
Experimental: A solution of ^125 I-ABGA in dimethylsulfoxide was added to a buffer of pH 5, 7 or 9 and incubated at 37° C. for a certain period of time.

[4] = Octanol/phosphate buffer distribution ratio (lipophilic property); format: physicochemical
Experimental: To a mixture of octanol (3 ml) and phosphate buffer (PBS) (3 ml), ^125 I-ABGA as obtained in Example 2 was added, followed by stirring and allowing to stand. The radioactivity of each layer was measured, and the distribution ratio was determined. The results are shown in Table 1, from which it is understood that ^125 I-ABGA is lypophilic.

Compound: O=C(N[C@H]1C(O)O[C@H](CO)[C@@H](O)[C@@H]1O)c1cccc(I)c1 (stereo partly drawn) [BGA, N-m-iodobenzoyl-D-glucosamine]
- Inhibition to the ATP action (hexokinase): antagonistic inhibition to the ATP action
- Inhibition to the phosphorylation of glucose (hexokinase): non-antagonistic inhibition to the phosphorylation of glucose
- Phosphorylation with hexokinase (hexokinase): not phosphorylated with hexokinase
- Passage through the blood-brain barrier ([1]; in vivo): can hardly pass through the blood-brain barrier (BBB) in vivo
- Disappearance of radioactivity from brain ([1]; mouse): parallel to the blood clearance
- Stomach accumulation as index of deiodization / stability in body ([1]; mouse): low in stomach accumulation as the index of deiodization and thus stable in a body

Compound: CC(=O)OC[C@H]1OC(OC(C)=O)[C@H](NC(=O)c2cccc(I)c2)[C@@H](OC(C)=O)[C@@H]1OC(C)=O (stereo partly drawn) [ABGA, N-(m-iodobenzoyl)-1,3,4,6-tetra-O-acetyl-D-glucosamine]
- Brain/blood ratio with lapse of time [2]: increase of the brain/blood ratio with the lapse of time
- Clearance from the blood [2]: rapid clearance from the blood
- Retention in the brain [2]: retention in the brain
- Uptake in the brain in comparison with BGA [2]: higher uptake in the brain
- TLC peak of ABGA over time (brain; mouse brain, 5 to 180 minutes): decreases with the lapse of time
- TLC peaks in brain (brain; mouse brain, 5 minutes after i.v. administration): the peaks of ABGA and BGA appear in brain 5 minutes after the administration
- Transfer to brain and deesterification (brain; mouse, i.v.): transferred to brain at the initial stage of administration and thereafter deesterified, whereby it behaves as BGA

Compound: CC(=O)OC[C@H]1OC(OC(C)=O)[C@H](NC(=O)c2cccc([125I])c2)[C@@H](OC(C)=O)[C@@H]1OC(C)=O (stereo partly drawn) [^125 I-ABGA, ^125 I-labeled N-(m-iodobenzoyl)-1,3,4,6-tetra-O-acetyl-D-glucosamine]
- Proportion of peak component ABGA (Swine liver esterase; 10 min): 0
- Proportion of peak component BGA (Swine liver esterase; 10 min): 87.3 ± 3.1
- Proportion of peak component I^- (Swine liver esterase; 10 min): 0.9 ± 0.5
- Proportion of peak component Others (Swine liver esterase; 10 min): 10.6 ± 2.9
- Proportion of peak component ABGA (Swine liver esterase; 60 min): 0
- Proportion of peak component BGA (Swine liver esterase; 60 min): 54.5 ± 3.7
- Proportion of peak component I^- (Swine liver esterase; 60 min): 6.5 ± 0.5
- Proportion of peak component Others (Swine liver esterase; 60 min): 33.7 ± 2.4
- Proportion of peak component ABGA (Swine liver esterase; 180 min): 0
- Proportion of peak component BGA (Swine liver esterase; 180 min): 7.2 ± 2.2
- Proportion of peak component I^- (Swine liver esterase; 180 min): 33.4 ± 1.6
- Proportion of peak component Others (Swine liver esterase; 180 min): 42.9 ± 0.4
- Enzymatic deesterification (Swine liver esterase; swine liver esterase): deesterified in a very short time to give N-m-iodobenzoyl-D-glucosamine (BGA)
- Stability: peak component ABGA ([3]; 15 min, pH 5, 37° C.): 99.1
- Stability: peak component I^- ([3]; 15 min, pH 5, 37° C.): 0
- Stability: peak component Others ([3]; 15 min, pH 5, 37° C.): 0
- Stability: peak component ABGA ([3]; 15 min, pH 7, 37° C.): 99.9
- Stability: peak component I^- ([3]; 15 min, pH 7, 37° C.): 0
- Stability: peak component Others ([3]; 15 min, pH 7, 37° C.): 0
- Stability: peak component ABGA ([3]; 15 min, pH 9, 37° C.): 53.9
- Stability: peak component I^- ([3]; 15 min, pH 9, 37° C.): 10.2
- Stability: peak component Others ([3]; 15 min, pH 9, 37° C.): 31.5
- Stability: peak component ABGA ([3]; 60 min, pH 5, 37° C.): 98.5
- Stability: peak component I^- ([3]; 60 min, pH 5, 37° C.): 0
- Stability: peak component Others ([3]; 60 min, pH 5, 37° C.): 0
- Stability: peak component ABGA ([3]; 60 min, pH 7, 37° C.): 99.3
- Stability: peak component I^- ([3]; 60 min, pH 7, 37° C.): 0
- Stability: peak component Others ([3]; 60 min, pH 7, 37° C.): 0
- Stability: peak component ABGA ([3]; 60 min, pH 9, 37° C.): 25.5
- Stability: peak component I^- ([3]; 60 min, pH 9, 37° C.): 19.6
- Stability: peak component Others ([3]; 60 min, pH 9, 37° C.): 49.0
- Stability: peak component ABGA ([3]; 180 min, pH 5, 37° C.): 98.4
- Stability: peak component I^- ([3]; 180 min, pH 5, 37° C.): 0
- Stability: peak component Others ([3]; 180 min, pH 5, 37° C.): 0
- Stability: peak component ABGA ([3]; 180 min, pH 7, 37° C.): 97.8
- Stability: peak component I^- ([3]; 180 min, pH 7, 37° C.): 0.9
- Stability: peak component Others ([3]; 180 min, pH 7, 37° C.): 0
- Stability: peak component ABGA ([3]; 180 min, pH 9, 37° C.): 2.2
- Stability: peak component I^- ([3]; 180 min, pH 9, 37° C.): 31.1
- Stability: peak component Others ([3]; 180 min, pH 9, 37° C.): 57.5
- Stability at high pH ([3]; high pH (pH 9), 37° C.): hydrolyzed to BGA with deiodization at high pH
- Stability at other pH ([3]; pH 5 and 7, 37° C., up to 3 hours): stable (i.e. neither hydrolyzed nor deiodized) even after 3 hours at other pH
- Body distribution, Blood ([2]; 2 min): 5.16 ± 0.97 % dose/g organ
- Body distribution, Brain ([2]; 2 min): 0.53 ± 0.14 % dose/g organ
- Body distribution, Heart ([2]; 2 min): 4.88 ± 0.97 % dose/g organ
- Body distribution, Intestine ([2]; 2 min): 3.94 ± 1.19 % dose/g organ
- Body distribution, Kidney ([2]; 2 min): 14.87 ± 2.31 % dose/g organ
- Body distribution, Liver ([2]; 2 min): 15.32 ± 4.43 % dose/g organ
- Body distribution, Pancreas ([2]; 2 min): 4.54 ± 1.03 % dose/g organ
- Body distribution, Stomach ([2]; 2 min): 1.87 ± 0.68 % dose/g organ
- Body distribution, Blood ([2]; 5 min): 7.16 ± 0.13 % dose/g organ
- Body distribution, Brain ([2]; 5 min): 0.55 ± 0.11 % dose/g organ
- Body distribution, Heart ([2]; 5 min): 4.45 ± 0.52 % dose/g organ
- Body distribution, Intestine ([2]; 5 min): 4.58 ± 0.60 % dose/g organ
- Body distribution, Kidney ([2]; 5 min): 11.39 ± 3.08 % dose/g organ
- Body distribution, Liver ([2]; 5 min): 12.85 ± 1.71 % dose/g organ
- Body distribution, Pancreas ([2]; 5 min): 4.40 ± 0.28 % dose/g organ
- Body distribution, Stomach ([2]; 5 min): 0.59 ± 0.23 % dose/g organ
- Body distribution, Blood ([2]; 15 min): 6.64 ± 0.31 % dose/g organ
- Body distribution, Brain ([2]; 15 min): 0.47 ± 0.06 % dose/g organ
- Body distribution, Heart ([2]; 15 min): 3.35 ± 0.27 % dose/g organ
- Body distribution, Intestine ([2]; 15 min): 5.89 ± 0.47 % dose/g organ
- Body distribution, Kidney ([2]; 15 min): 7.00 ± 0.49 % dose/g organ
- Body distribution, Liver ([2]; 15 min): 7.66 ± 0.86 % dose/g organ
- Body distribution, Pancreas ([2]; 15 min): 3.16 ± 0.30 % dose/g organ
- Body distribution, Stomach ([2]; 15 min): 1.88 ± 0.52 % dose/g organ
- Body distribution, Blood ([2]; 30 min): 4.16 ± 2.42 % dose/g organ
- Body distribution, Brain ([2]; 30 min): 0.43 ± 0.02 % dose/g organ
- Body distribution, Heart ([2]; 30 min): 2.69 ± 0.20 % dose/g organ
- Body distribution, Intestine ([2]; 30 min): 6.26 ± 0.96 % dose/g organ
- Body distribution, Kidney ([2]; 30 min): 6.37 ± 3.04 % dose/g organ
- Body distribution, Liver ([2]; 30 min): 5.82 ± 0.64 % dose/g organ
- Body distribution, Pancreas ([2]; 30 min): 2.59 ± 0.13 % dose/g organ
- Body distribution, Stomach ([2]; 30 min): 1.86 ± 0.13 % dose/g organ
- Body distribution, Blood ([2]; 60 min): 3.67 ± 0.40 % dose/g organ
- Body distribution, Brain ([2]; 60 min): 0.33 ± 0.05 % dose/g organ
- Body distribution, Heart ([2]; 60 min): 1.87 ± 0.37 % dose/g organ
- Body distribution, Intestine ([2]; 60 min): 6.88 ± 0.53 % dose/g organ
- Body distribution, Kidney ([2]; 60 min): 3.81 ± 0.75 % dose/g organ
- Body distribution, Liver ([2]; 60 min): 4.94 ± 0.90 % dose/g organ
- Body distribution, Pancreas ([2]; 60 min): 2.10 ± 0.34 % dose/g organ
- Body distribution, Stomach ([2]; 60 min): 1.74 ± 0.83 % dose/g organ
- Body distribution, Blood ([2]; 180 min): 0.91 ± 0.55 % dose/g organ
- Body distribution, Brain ([2]; 180 min): 0.19 ± 0.08 % dose/g organ
- Body distribution, Heart ([2]; 180 min): 0.75 ± 0.34 % dose/g organ
- Body distribution, Intestine ([2]; 180 min): 4.60 ± 2.84 % dose/g organ
- Body distribution, Kidney ([2]; 180 min): 1.08 ± 0.67 % dose/g organ
- Body distribution, Liver ([2]; 180 min): 2.25 ± 1.44 % dose/g organ
- Body distribution, Pancreas ([2]; 180 min): 0.76 ± 0.35 % dose/g organ
- Body distribution, Stomach ([2]; 180 min): 1.27 ± 0.80 % dose/g organ
- Lipophilic property ([4]; octanol/PBS): lypophilic
- Distribution ratio in PBS and octanol ([4]; pH 7.0): 189.0
- Distribution ratio in PBS and octanol ([4]; pH 7.4): 193.8
- Distribution ratio in PBS and octanol ([4]; pH 8.10): 206.5
